24 molecules from patent publication US20250382305A1 (PTC THERAPEUTICS, INC., priority 2022, published 2025) can be followed below.

For assay [1], the system named is Total ATXN3 (tATXN3) protein. In words: Endogenous Total ATXN3 (tATXN3) Protein Assay (MSD immunoassay of cell lysates). Conditions: average IC50, total ATXN3 protein in cell lysate after 48 h with compound (Table 1). The assay is classed as cell-based. Put shortly:
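By electrochemiluminescent MSD sandwich immunoassay (mouse monoclonal capture, rabbit monoclonal and SULFO-TAG anti-rabbit detection), endogenous ATXN3 was quantified in lysates of cells treated 48 h at 37° C at 10,000 cells/well. Treatment used a 7-point 3.16-fold duplicate dilution series, with average IC50 grouped into star categories.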

In the next assay the test system is ATXN3 pre-mRNA. In words: RT-qPCR Assay to Quantify Exon 4 Skipping in ATXN3 pre-mRNA in Cells. It counts as cell-based. The following applies: percent exon 4 skipping in ATXN3 pre-mRNA, RT-qPCR of cell lysates; average IC50. Put shortly: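 IC50 derives from a dose-response fit of percent exon 4 skipping, quantified by RT-qPCR on crude lysates. Compounds tested as 7-point 3.16-fold dilutions in duplicate; cells (10,000/well) were exposed for 24 h at 37 °C before lysis.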
A general note: In qPCR the cycle at which signal appears reflects the starting amount.

As usually defined, the IC50 is the concentration that gives 50% inhibition. In the case of “6-((3R,4S)-3-aminotetrahydro-2H-pyran-4-yl)-7-bromo-2-chloro-N-(furan-2-ylmethyl)thieno[3,2-d]pyrimidin-4-amine and 6-((3S,4R)-3-aminotetrahydro-2H-pyran-4-yl)-7-bromo-2-chloro-N-(furan-2-ylmethyl)thieno[3,2-d]pyrimidin-4-amine [Compound 339]”, the IC50 (in assay [1]; in the assay with ATXN3 pre-mRNA) was 30 to 300 nM each time.
Consider “2-((1S,6S)-6-aminocyclohex-3-en-1-yl)-3-bromo-5-chloro-N-(thiophen-2-ylmethyl)thieno[3,2-b]pyridin-7-amine and 2-((1R,6R)-6-aminocyclohex-3-en-1-yl)-3-bromo-5-chloro-N-(thiophen-2-ylmethyl)thieno[3,2-b]pyridin-7-amine [Compound 256]”, for which the IC50 is 30 to 300 nM in assay [1] and at most 30 nM in the assay on ATXN3 pre-mRNA.
Turning to “2-((1R,6R)-6-aminocyclohex-3-en-1-yl-2,2,3,4,5,5-d6)-5-chloro-N-(furan-2-ylmethyl)-3-methylthieno[3,2-b]pyridin-7-amine and 2-((1S,6S)-6-aminocyclohex-3-en-1-yl-2,2,3,4,5,5-d6)-5-chloro-N-(furan-2-ylmethyl)-3-methylthieno[3,2-b]pyridin-7-amine [Compound 171]”, the IC50 (in assay [1]; in the assay on ATXN3 pre-mRNA) was at most 30 nM throughout.
Regarding `N[C@@H]1CCOC[C@H]1c1sc2c(NCc3ccccc3)cc(Cl)nc2c1Cl` [Compound 406, 2-((3S,4R)-4-aminotetrahydro-2H-pyran-3-yl)-N-benzyl-3,5-dichlorothieno[3,2-b]pyridin-7-amine], the IC50 in assay [1] was 30 to 300 nM; in the assay on ATXN3 pre-mRNA, at most 30 nM.
Consider `N[C@H]1CCCC[C@H]1c1cc2nc(Cl)cc(NCc3cccs3)c2s1` [Compound 22, 2-((1R,2S)-2-aminocyclohexyl)-5-chloro-N-(thiophen-2-ylmethyl)thieno[3,2-b]pyridin-7-amine], for which the IC50 (in assay [1]; with ATXN3 pre-mRNA) was 300 to 1000 nM in each case.
With `C#Cc1c([C@H]2CCCC[C@@H]2N)sc2c(NCc3ccccc3F)cc(Cl)nc12` [Compound 311, 2-((1S,2S)-2-aminocyclohexyl)-5-chloro-3-ethynyl-N-(2-fluorobenzyl)thieno[3,2-b]pyridin-7-amine], the IC50 (in assay [1]; in the assay on ATXN3 pre-mRNA) was 30 to 300 nM in each case.
In the case of `N[C@@H]1CCCO[C@H]1c1sc2c(NCc3ccco3)nc(Cl)nc2c1C#CCO.N[C@H]1CCCO[C@@H]1c1sc2c(NCc3ccco3)nc(Cl)nc2c1C#CCO` (mixture of isomers) [Compound 255, 3-(6-((2R,3R)-3-aminotetrahydro-2H-pyran-2-yl)-2-chloro-4-((furan-2-ylmethyl)amino)thieno[3,2-d]pyrimidin-7-yl)prop-2-yn-1-ol and 3-(6-((2S,3S)-3-aminotetrahydro-2H-pyran-2-yl)-2-chloro-4-((furan-2-ylmethyl)amino)thieno[3,2-d]pyrimidin-7-yl)prop-2-yn-1-ol], the IC50 in assay [1] was 30 to 300 nM; with ATXN3 pre-mRNA it was at most 30 nM.
For `CCc1c([C@@H]2CCCC[C@H]2N)sc2c(NCc3cccs3)cc(Cl)nc12` (single isomer, unassigned) [Compound 39, 2-((1R,2R)-2-aminocyclohexyl)-5-chloro-3-ethyl-N-(thiophen-2-ylmethyl)thieno[3,2-b]pyridin-7-amine or 2-((1S,2S)-2-aminocyclohexyl)-5-chloro-3-ethyl-N-(thiophen-2-ylmethyl)thieno[3,2-b]pyridine-7-amine], the IC50 (in assay [1]; with ATXN3 pre-mRNA) was above 1000 nM in each case.
In the case of `N[C@H]1CCCC[C@@H]1c1sc2c(NCc3cccs3)cc(Cl)nc2c1Br` [Compound 55, 2-((1S,2S)-2-aminocyclohexyl)-3-bromo-5-chloro-N-(thiophen-2-ylmethyl)thieno[3,2-b]pyridin-7-amine], the IC50 (in assay [1]; in the assay on ATXN3 pre-mRNA) was 30 to 300 nM throughout.
With `N[C@@H]1CC=CC[C@H]1c1sc2c(NCc3ccco3)nc(Cl)nc2c1Br` [Compound 396, 6-((1R,6R)-6-aminocyclohex-3-en-1-yl)-7-bromo-2-chloro-N-(furan-2-ylmethyl)thieno[3,2-d]pyrimidin-4-amine], the IC50 in assay [1] was in the range of 300 to 1000 nM; in the assay with ATXN3 pre-mRNA, 30 to 300 nM.
As to `CCc1c([C@@H]2CCCCCC[C@H]2N)sc2c(NCc3cccs3)cc(Cl)nc12` [Compound 158, 2-((1R,2R)-2-aminocyclooctyl)-5-chloro-3-ethyl-N-(thiophen-2-ylmethyl)thieno[3,2-b]pyridin-7-amine], the IC50 (in assay [1]; in the assay with ATXN3 pre-mRNA) was above 1000 nM throughout.
As for “(2R,3S)-2-amino-3-(3-bromo-5-chloro-7-((thiophen-2-ylmethyl)amino)thieno[3,2-b]pyridin-2-yl)cyclohexan-1-one and (2S,3R)-2-amino-3-(3-bromo-5-chloro-7-((thiophen-2-ylmethyl)amino)thieno[3,2-b]pyridin-2-yl)cyclohexan-1-one [Compound 192]”, the IC50 (in assay [1]; in the assay with ATXN3 pre-mRNA) was at most 30 nM each time.
As to `N[C@@H]1CC=CC[C@H]1c1sc2c(NCc3ccco3)nc(Cl)nc2c1I` [Compound 323, 6-((1R,6R)-6-aminocyclohex-3-en-1-yl)-2-chloro-N-(furan-2-ylmethyl)-7-iodothieno[3,2-d]pyrimidin-4-amine], the IC50 (in assay [1]; with ATXN3 pre-mRNA) was 30 to 300 nM throughout.
Regarding `N[C@@H]1CCCCCC[C@@H]1c1sc2c(NCc3cccs3)cc(Cl)nc2c1Cl` [Compound 98, 2-((1S,2R)-2-aminocyclooctyl)-3,5-dichloro-N-(thiophen-2-ylmethyl)thieno[3,2-b]pyridin-7-amine], the 50% inhibitory concentration (IC50) (in assay [1]; in the assay with ATXN3 pre-mRNA) was above 1000 nM throughout.
Regarding `Cc1c([C@H]2CC=CC[C@@H]2N)sc2c(NCc3ccco3)nc(Cl)nc12` [Compound 193, 6-((1S,6S)-6-aminocyclohex-3-en-1-yl)-2-chloro-N-(furan-2-ylmethyl)-7-methylthieno[3,2-d]pyrimidin-4-amine], the IC50 (in assay [1]; in the assay with ATXN3 pre-mRNA) was at most 30 nM throughout.
With `N[C@@H]1CC=CC[C@H]1c1sc2c(NCc3nccs3)cc(Cl)nc2c1Cl` [Compound 380, 2-((1R,6R)-6-aminocyclohex-3-en-1-yl)-3,5-dichloro-N-(thiazol-2-ylmethyl)thieno[3,2-b]pyridin-7-amine], the IC50 (in assay [1]; in the assay with ATXN3 pre-mRNA) was 30 to 300 nM throughout.
With “6-((1R,2R)-2-aminocyclohexyl)-N-benzyl-2-chloro-7-methylthieno[3,2-d]pyrimidin-4-amine or 6-((1S,2S)-2-aminocyclohexyl)-N-benzyl-2-chloro-7-methylthieno[3,2-d]pyrimidin-4-amine [Compound 43]”, the IC50 (in assay [1]; in the assay with ATXN3 pre-mRNA) was above 1000 nM each time.
Consider `Cc1c([C@@H]2CCCCCC[C@@H]2N)sc2c(NCc3cccs3)cc(Cl)nc12` [Compound 95, 2-((1R,2S)-2-aminocyclooctyl)-5-chloro-3-methyl-N-(thiophen-2-ylmethyl)thieno[3,2-b]pyridin-7-amine], for which the IC50 (in assay [1]; in the assay with ATXN3 pre-mRNA) was above 1000 nM each time.
As to `N[C@H]1CCCO[C@@H]1c1sc2c(NCc3cccs3)cc(Cl)nc2c1Br` [Compound 56, 2-((2S,3S)-3-aminotetrahydro-2H-pyran-2-yl)-3-bromo-5-chloro-N-(thiophen-2-ylmethyl)thieno[3,2-b]pyridin-7-amine], the values for the IC50 (in assay [1]; in the assay on ATXN3 pre-mRNA) were 300 to 1000 nM and 30 to 300 nM, respectively.
On to `N[C@H]1CCCC[C@@H]1c1sc2c(NCc3cccs3)cc(Cl)nc2c1C1CC1` [Compound 130, 2-((1S,2S)-2-aminocyclohexyl)-5-chloro-3-cyclopropyl-N-(thiophen-2-ylmethyl)thieno[3,2-b]pyridin-7-amine], for which the IC50 (in assay [1]; with ATXN3 pre-mRNA) was 30 to 300 nM throughout.
Regarding `Cc1c([C@@H]2CCC[C@H](F)[C@H]2N)sc2c(NCc3cccs3)cc(Cl)nc12.Cc1c([C@H]2CCC[C@@H](F)[C@@H]2N)sc2c(NCc3cccs3)cc(Cl)nc12` (mixture of isomers) [Compound 342, 2-((1R,2S,3S)-2-amino-3-fluorocyclohexyl)-5-chloro-3-methyl-N-(thiophen-2-ylmethyl)thieno[3,2-b]pyridin-7-amine and 2-((1S,2R,3R)-2-amino-3-fluorocyclohexyl)-5-chloro-3-methyl-N-(thiophen-2-ylmethyl)thieno[3,2-b]pyridin-7-amine], the IC50 (in assay [1]; in the assay with ATXN3 pre-mRNA) was 30 to 300 nM in each case.
Consider `N[C@@H]1CCCC[C@H]1c1sc2c(NCc3ccccc3)cc(Cl)nc2c1Cl` [Compound 368, 2-((1R,2R)-2-aminocyclohexyl)-N-benzyl-3,5-dichlorothieno[3,2-b]pyridin-7-amine], for which the IC50 (in assay [1]; in the assay with ATXN3 pre-mRNA) was 30 to 300 nM each time.
For the molecule `N[C@@H]1[C@@H](O)C=CC[C@H]1c1sc2c(NCc3cccs3)cc(Cl)nc2c1Cl.N[C@H]1[C@H](O)C=CC[C@@H]1c1sc2c(NCc3cccs3)cc(Cl)nc2c1Cl` (mixture of isomers) [Compound 127, (1R,5S,6R)-6-amino-5-(3,5-dichloro-7-((thiophen-2-ylmethyl)amino)thieno[3,2-b]pyridin-2-yl)cyclohex-2-en-1-ol and (1S,5R,6S)-6-amino-5-(3,5-dichloro-7-((thiophen-2-ylmethyl)amino)thieno[3,2-b]pyridin-2-yl)cyclohex-2-en-1-ol], the IC50 (in assay [1]; in the assay on ATXN3 pre-mRNA) was 30 to 300 nM throughout.
For `CC1=C(C)C[C@H](N)[C@@H](c2sc3c(NCc4ccco4)cc(Cl)nc3c2Cl)C1` [Compound 233, 2-((1S,6S)-6-amino-3,4-dimethylcyclohex-3-en-1-yl)-3,5-dichloro-N-(furan-2-ylmethyl)thieno[3,2-b]pyridin-7-amine], the IC50 (in assay [1]; in the assay with ATXN3 pre-mRNA) was at most 30 nM in each case.
